Reference: patent publication US20060069132A1, “Azolecarboxamide herbicides” (priority 2004, published 2006)

Assays:
[1] = tested on: large crabgrass; test: Test B pre-/postemergence herbicide test; type: in vivo, Digitaria sanguinalis
Outline: (§1)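 Test chemicals in a non-phytotoxic solvent mixture with surfactant were applied preemergence to seeded species and postemergence to plants 2-18 cm tall (1- to 4-leaf stage); rice and barnyardgrass were also tested in a flooded paddy at the 2-leaf stage. Visual rating versus controls after 13-15 days in greenhouse, scale 0 (no effect) to 100 (complete control).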

[2] = tested on: velvetleaf; test: Test B pre-/postemergence herbicide test; type: in vivo, Abutilon theophrasti
Outline: as §1

[3] = tested on: wild oat; test: Test B postemergence herbicide test; type: in vivo, Avena fatua
Outline: (§2)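 Scale 0–100: zero equals no visible effect, 100 complete control, judged by eye relative to controls. Timing: 13 to 15 days in greenhouse post-treatment. Growth stage at spraying: two leaves (paddy) or one to four leaves, 2–18 cm (postemergence).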

[4] = tested on: morningglory; test: Test B pre-/postemergence herbicide test; type: in vivo, Ipomoea coccinea
Outline: as §1

[5] = tested on: corn; test: Test B pre-/postemergence herbicide test; type: in vivo, Zea mays
Outline: as §1

[6] = tested on: barnyardgrass; test: Test B pre-/postemergence herbicide test; type: in vivo, Echinochloa crus-galli
Outline: as §1

[7] = tested on: rice; test: Test B flooded paddy test; type: in vivo, Oryza sativa; details: 1000 g ai/ha, scale 0 to 100 (0 no effect, 100 complete control)
Outline: (§3)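 Paddy species grown to the 2-leaf stage under flooding; blackgrass sprayed postemergence at 2–18 cm (1- to 4-leaf stage). Plants kept in a greenhouse for 13 to 15 days, then visually rated against controls on 0 (no effect) to 100 (complete control).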

[8] = tested on: giant foxtail; test: Test B pre-/postemergence herbicide test; type: in vivo, Setaria faberi
Outline: as §1

[9] = tested on: wheat; test: Test B postemergence herbicide test; type: in vivo, Triticum aestivum; set-up: key to Wheat plant response rating: 0 = no effect, 100 = complete control
Outline: as §2

[10] = tested on: blackgrass; test: Test B postemergence herbicide test; type: in vivo, Alopecurus myosuroides
Outline: as §3

[11] = tested on: ducksalad; test: Test B flooded paddy test; type: in vivo, Heteranthera limosa; details: 1000 g ai/ha, scale 0 to 100 (0 no effect, 100 complete control)
Outline: as §3

[12] = tested on: barnyardgrass; test: Test B flooded paddy test; type: in vivo, Echinochloa crus-galli; details: 1000 g ai/ha, scale 0 to 100 (0 no effect, 100 complete control)
Outline: as §3

[13] = tested on: Surinam grass; test: Test B pre-/postemergence herbicide test; type: in vivo, Urochloa decumbens
Outline: as §1

[14] = tested on: pigweed; test: Test B pre-/postemergence herbicide test; type: in vivo, Amaranthus retroflexus
Outline: as §1

[15] = tested on: small flower umbrella sedge; test: Test B flooded paddy test; type: in vivo, Cyperus difformis; details: 1000 g ai/ha, scale 0 to 100 (0 no effect, 100 complete control)
Outline: as §3

[16] = 125 g ai/ha, 0 is no effect, 100 is complete control, preemergence
[17] = 125 g ai/ha, visual rating, scale 0 (no effect) to 100 (complete control), postemergence
[18] = 500 g ai/ha, visual rating, 0 = no effect, 100 = complete control, preemergence
[19] = postemergence, 500 g ai/ha, scale 0 to 100, 0 is no effect, 100 is complete control
[20] = Postemergence, 500 g ai/ha, scale 0 (no effect) to 100 (complete control)
[21] = postemergence, 125 g ai/ha, scale 0 to 100
[22] = 125 g ai/ha, 0 = no effect, 100 = complete control, preemergence
[23] = Postemergence, 500 g ai/ha, visual rating after 13 to 15 days, scale 0 (no effect) to 100 (complete control)
[24] = Preemergence, 500 g ai/ha, scale 0 to 100
[25] = postemergence, 125 g ai/ha, visual rating, scale 0 (no effect) to 100 (complete control)
[26] = preemergence, 125 g ai/ha, 0 to 100 scale, 0 is no effect, 100 is complete control

## CCC1=NN(C(C)(C)C)CC1C(=O)Nc1cc(C(=O)N2CC=CC2)ccc1F (racemic) [Compound 340]
[1]; [16]
  Plant response rating (0 to 100 scale), Crabgrass, Large: 80
[1]; [17]
  Crabgrass, Large plant response rating: 10
[1]; [18]
  Plant response rating, Crabgrass, Large: 100
[1]; [19]
  Crabgrass, Large plant response rating: 20
[2]; [16]
  Plant response rating (0 to 100 scale), Velvetleaf: 70
[2]; [17]
  Velvetleaf plant response rating: 20
[2]; [19]
  Velvetleaf plant response rating: 40
[3]; [17]
  Oat, Wild plant response rating: 20
[3]; [19]
  Oat, Wild plant response rating: 30
[4]; [16]
  Plant response rating (0 to 100 scale), Morningglory: 30
[4]; [17]
  Morningglory plant response rating: 10
[4]; [19]
  Morningglory plant response rating: 40
[5]; [17]
  Corn plant response rating: 0
[5]; [19]
  Corn plant response rating: 20
[6]; [16]
  Plant response rating (0 to 100 scale), Barnyardgrass: 80
[6]; [17]
  Barnyardgrass plant response rating: 10
[6]; [18]
  Plant response rating, Barnyardgrass: 100
[6]; [19]
  Barnyardgrass plant response rating: 20
[7]
  Rice plant response rating: 80
[8]; [16]
  Plant response rating (0 to 100 scale), Foxtail, Giant: 60
[8]; [17]
  Foxtail, Giant plant response rating: 20
[8]; [18]
  Plant response rating, Foxtail, Giant: 100
[8]; [19]
  Foxtail, Giant plant response rating: 40
[9]; [17]
  Wheat plant response rating: 0
[9]; [19]
  Wheat plant response rating: 10
[10]; [17]
  Blackgrass plant response rating: 20
[10]; [19]
  Blackgrass plant response rating: 30
[11]
  Ducksalad plant response rating: 90
[12]
  Barnyardgrass plant response rating: 90
[13]; [16]
  Plant response rating (0 to 100 scale), Surinam Grass: 80
[13]; [17]
  Surinam Grass plant response rating: 10
[13]; [18]
  Plant response rating, Surinam Grass: 100
[13]; [19]
  Surinam Grass plant response rating: 20
[14]; [16]
  Plant response rating (0 to 100 scale), Pigweed: 100
[14]; [17]
  Pigweed plant response rating: 50
[14]; [18]
  Plant response rating, Pigweed: 100
[14]; [19]
  Pigweed plant response rating: 80
[15]
  Sedge, Umbrella plant response rating: 80

## CCc1nn(C(C)(C)C)nc1C(=O)Nc1cccc(C(=O)NC2CC2)c1 [Compound 417]
[1]; [16]
  Plant response rating (0 to 100 scale), Crabgrass, Large: 100
[1]; [20]
  Crabgrass, Large plant response rating: 40
[1]; [21]
  Crabgrass, Large plant response rating: 20
[2]; [16]
  Plant response rating (0 to 100 scale), Velvetleaf: 50
[2]; [20]
  Velvetleaf plant response rating: 40
[2]; [21]
  Velvetleaf plant response rating: 20
[3]; [20]
  Oat, Wild plant response rating: 40
[3]; [21]
  Oat, Wild plant response rating: 10
[4]; [16]
  Plant response rating (0 to 100 scale), Morningglory: 0
[4]; [20]
  Morningglory plant response rating: 60
[4]; [21]
  Morningglory plant response rating: 50
[5]; [16]
  Plant response rating (0 to 100 scale), Corn: 40
[5]; [20]
  Corn plant response rating: 30
[5]; [21]
  Corn plant response rating: 10
[6]; [16]
  Plant response rating (0 to 100 scale), Barnyardgrass: 80
[6]; Postemergence, 125 g ai/ha, scale 0 (no effect) to 100 (complete control)
  Barnyardgrass plant response rating: 10
[6]; [20]
  Barnyardgrass plant response rating: 20
[7]
  Rice plant response rating: 70
[8]; [16]
  Plant response rating (0 to 100 scale), Foxtail, Giant: 70
[8]; [20]
  Foxtail, Giant plant response rating: 40
[8]; [21]
  Foxtail, Giant plant response rating: 20
[9]; 500 g ai/ha, scale 0 to 100, 0 no effect, 100 complete control, preemergence
  Wheat plant response rating: 90
[9]; [20]
  Wheat plant response rating: 20
[9]; [21]
  Wheat plant response rating: 10
[10]; [20]
  Blackgrass plant response rating: 40
[10]; [21]
  Blackgrass plant response rating: 10
[11]
  Ducksalad plant response rating: 80
[12]
  Barnyardgrass plant response rating: 70
[13]; [16]
  Plant response rating (0 to 100 scale), Surinam Grass: 80
[13]; [20]
  Surinam Grass plant response rating: 30
[13]; [21]
  Surinam Grass plant response rating: 10
[14]; [16]
  Plant response rating (0 to 100 scale), Pigweed: 90
[14]; [20]
  Pigweed plant response rating: 80
[14]; [21]
  Pigweed plant response rating: 50
[15]
  Sedge, Umbrella plant response rating: 70

## CCn1nc(C2(C)CC2)cc1C(=O)Nc1cccc(C(=O)N2CC=CC2)c1 [Compound 304]
[1]; [22]
  Crabgrass, Large plant response rating (0 to 100 scale): 10
[1]; [17]
  Crabgrass, Large plant response rating: 10
[1]; [18]
  Plant response rating, Crabgrass, Large: 100
[1]; [19]
  Crabgrass, Large plant response rating: 10
[2]; [17]
  Velvetleaf plant response rating: 10
[2]; [18]
  Plant response rating, Velvetleaf: 100
[2]; [19]
  Velvetleaf plant response rating: 60
[3]; [17]
  Oat, Wild plant response rating: 30
[3]; [19]
  Oat, Wild plant response rating: 40
[4]; [22]
  Morningglory plant response rating (0 to 100 scale): 10
[4]; [17]
  Morningglory plant response rating: 100
[4]; [18]
  Plant response rating, Morningglory: 10
[4]; [19]
  Morningglory plant response rating: 100
[5]; [22]
  Corn plant response rating (0 to 100 scale): 0
[5]; [17]
  Corn plant response rating: 40
[5]; [19]
  Corn plant response rating: 80
[6]; [22]
  Barnyardgrass plant response rating (0 to 100 scale): 10
[6]; [17]
  Barnyardgrass plant response rating: 20
[6]; [18]
  Plant response rating, Barnyardgrass: 70
[6]; [19]
  Barnyardgrass plant response rating: 20
[7]
  Rice plant response rating: 90
[8]; [22]
  Foxtail, Giant plant response rating (0 to 100 scale): 10
[8]; [17]
  Foxtail, Giant plant response rating: 30
[8]; [18]
  Plant response rating, Foxtail, Giant: 90
[8]; [19]
  Foxtail, Giant plant response rating: 30
[9]; [17]
  Wheat plant response rating: 10
[9]; [19]
  Wheat plant response rating: 20
[10]; [17]
  Blackgrass plant response rating: 10
[10]; [19]
  Blackgrass plant response rating: 40
[11]
  Ducksalad plant response rating: 90
[12]
  Barnyardgrass plant response rating: 80
[13]; [22]
  Surinam Grass plant response rating (0 to 100 scale): 10
[13]; [17]
  Surinam Grass plant response rating: 0
[13]; [18]
  Plant response rating, Surinam Grass: 70
[13]; [19]
  Surinam Grass plant response rating: 10
[14]; [22]
  Pigweed plant response rating (0 to 100 scale): 100
[14]; [17]
  Pigweed plant response rating: 90
[14]; [18]
  Plant response rating, Pigweed: 100
[14]; [19]
  Pigweed plant response rating: 90
[15]
  Sedge, Umbrella plant response rating: 90

## CCn1nc(C(C)(C)C)cc1C(=O)Nc1ccc(F)c(C(=O)NCCF)c1 [Compound 60]
[1]; [23]
  Plant response rating, Crabgrass, Large: 20
[1]; [24]
  Crabgrass, Large plant response rating: 100
[1]; [25]
  Crabgrass, Large plant response rating: 10
[1]; [26]
  Plant response rating, Crabgrass, Large: 90
[2]; [23]
  Plant response rating, Velvetleaf: 60
[2]; [25]
  Velvetleaf plant response rating: 20
[2]; [26]
  Plant response rating, Velvetleaf: 10
[3]; [23]
  Plant response rating, Oat, Wild: 20
[3]; [25]
  Oat, Wild plant response rating: 20
[4]; [23]
  Plant response rating, Morningglory: 20
[4]; [25]
  Morningglory plant response rating: 10
[4]; [26]
  Plant response rating, Morningglory: 10
[5]; [23]
  Plant response rating, Corn: 20
[5]; [24]
  Corn plant response rating: 0
[5]; [25]
  Corn plant response rating: 10
[5]; [26]
  Plant response rating, Corn: 0
[6]; [23]
  Plant response rating, Barnyardgrass: 10
[6]; [24]
  Barnyardgrass plant response rating: 100
[6]; [25]
  Barnyardgrass plant response rating: 10
[6]; [26]
  Plant response rating, Barnyardgrass: 50
[7]; visual rating, 13 to 15 days
  Rice plant response rating: 50
[8]; [23]
  Plant response rating, Foxtail, Giant: 20
[8]; [24]
  Foxtail, Giant plant response rating: 100
[8]; [25]
  Foxtail, Giant plant response rating: 10
[8]; [26]
  Plant response rating, Foxtail, Giant: 40
[9]; [23]
  Plant response rating, Wheat: 0
[9]; [25]
  Wheat plant response rating: 0
[10]; [23]
  Plant response rating, Blackgrass: 0
[10]; [25]
  Blackgrass plant response rating: 0
[11]; visual rating, 13 to 15 days
  Ducksalad plant response rating: 70
[12]; visual rating, 13 to 15 days
  Barnyardgrass plant response rating: 60
[13]; [23]
  Plant response rating, Surinam Grass: 20
[13]; [25]
  Surinam Grass plant response rating: 10
[13]; [26]
  Plant response rating, Surinam Grass: 10
[14]; [23]
  Plant response rating, Pigweed: 70
[14]; [25]
  Pigweed plant response rating: 70
[14]; [26]
  Plant response rating, Pigweed: 90
[15]; visual rating, 13 to 15 days
  Sedge, Umbrella plant response rating: 60
